Measurements from patent US20240059703A1 (AMGEN INC., priority 2021, published 2024).

Key:
[1] = tested on: A549 (human lung carcinoma) cells; assay: Cell Viability Assay (CellTiter-Glo), A549; type: cell-based; conditions: Homo sapiens, A549, 72 h
In short: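 After a 72 h exposure to serial compound dilutions at 37° C, luminescent ATP content was measured with CellTiter-Glo. The cells were A549 or MIA PaCa-2, seeded at 1.67E+04 cells/mL in RPMI 1640 with 10% serum. Signals were normalized to DMSO controls and IC50 fitted with a 4-parameter logistic model.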

[2] = tested on: MIA PaCa-2 (human pancreatic carcinoma) cells; assay: Cell Viability Assay (CellTiter-Glo), MIA PaCa-2; type: cell-based
Description: Serially-diluted compound or DMSO was added to the cells, and plates were incubated at 37° C., 5% CO2 for 72 h. Cell viability was measured using a CellTiter-Glo® Luminescent Cell Viability Assay kit (Promega) according to the manufacturer's protocol. The luminescence signal of treated samples was normalized to DMSO control, and data were analyzed using a 4-parameter logistic model to calculate IC50 values.

KRAS G12C = KRAS G12C (Homo sapiens (Human), UniProt P01116, C118A/G12C); assay: 2 h coupled exchange assay; type: biochemical; conditions: Avg 2 h Coupled exchange IC50, 2 h compound pre-incubation
KRAS G12C, sequence (P01116 other isoform, or with tags, fused parts or gaps G12C/C118A): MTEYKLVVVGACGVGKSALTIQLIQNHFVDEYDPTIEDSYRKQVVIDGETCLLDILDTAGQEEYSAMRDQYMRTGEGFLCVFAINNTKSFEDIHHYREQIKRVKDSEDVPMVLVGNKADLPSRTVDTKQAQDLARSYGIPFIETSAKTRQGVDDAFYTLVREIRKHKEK
Description: The term “2 h coupled exchange assay” or “20 h coupled exchange assay” as used herein refers to the assay described in the Section entitled “BIOLOGICAL EVALUATION.”

IC50 [1]	IC50 ([2]; Homo sapiens, MIA PaCa-2, 72 h)	IC50 (KRAS G12C)	IC50 ([2]; 72 h)	SMILES
> 5000 nM	478 nM	200 nM	–	C=CC(=O)N1CC2(CCN(c3nc4c(c(-c5ncccc5C)c3C#N)CC[C@@](C)(c3scnc3C)C4)C2)C1 [Example 23-10, (7R)-7-methyl-4-(3-methyl-2-pyridinyl)-7-(4-methyl-1,3-thiazol-5-yl)-2-(2-(2-propenoyl)-2,6-diazaspiro[3.4]octan-6-yl)-5,6,7,8-tetrahydro-3-quinolinecarbonitrile]
> 5000 nM	637 nM	53 nM	–	C=CC(=O)N1CC2(CCN(c3nc4c(c(-c5ccccc5C)c3C#N)CCC(c3scnc3C)=C4)C2)C1 [Example 23-11, 4-(2-methylphenyl)-7-(4-methyl-1,3-thiazol-5-yl)-2-(2-(2-propenoyl)-2,6-diazaspiro[3.4]octan-6-yl)-5,6-dihydro-3-quinolinecarbonitrile]
4070 nM	754 nM	108 nM	–	C=CC(=O)N1CC2(CCN(c3nc4c(c(-c5ccccc5F)c3C#N)CC[C@](C)(c3scnc3C)C4)C2)C1 [Example 23-12, (7S)-4-(2-fluorophenyl)-7-methyl-7-(4-methyl-1,3-thiazol-5-yl)-2-(2-(2-propenoyl)-2,6-diazaspiro[3.4]octan-6-yl)-5,6,7,8-tetrahydro-3-quinolinecarbonitrile]
> 5000 nM	911 nM	39 nM	–	C=CC(=O)N1CC2(CCN(c3nc4c(c(-c5ccccc5F)c3C#N)CC[C@@](C)(c3scnc3C)C4)C2)C1 [Example 23-13, (7R)-4-(2-fluorophenyl)-7-methyl-7-(4-methyl-1,3-thiazol-5-yl)-2-(2-(2-propenoyl)-2,6-diazaspiro[3.4]octan-6-yl)-5,6,7,8-tetrahydro-3-quinolinecarbonitrile]
> 25000 nM	1310 nM	802 nM	–	C=CC(=O)N1CC2(CCN(c3nc4c(c(-c5ncccc5C)c3C#N)COC(c3scnc3C)C4)C2)C1 [Example 23-14, (7R)-4-(3-methyl-2-pyridinyl)-7-(4-methyl-1,3-thiazol-5-yl)-2-(2-(2-propenoyl)-2,6-diazaspiro[3.4]octan-6-yl)-7,8-dihydro-5H-pyrano[4,3-b]pyridine-3-carbonitrile (7S)-4-(3-methyl-2-pyridinyl)-7-(4-methyl-1,3-thiazol-5-yl)-2-(2-(2-propenoyl)-2,6-diazaspiro[3.4]octan-6-yl)-7,8-dihydro-5H-pyrano[4,3-b]pyridine-3-carbonitrile]
> 5000 nM	972 nM	196 nM	–	C=CC(=O)N1CC2(CCN(c3nc4c(c(-c5ccccc5Cl)c3C#N)COC(c3scnc3C)C4)C2)C1 [Example 23-15, (7R)-4-(2-chlorophenyl)-7-(4-methyl-1,3-thiazol-5-yl)-2-(2-(2-propenoyl)-2,6-diazaspiro[3.4]octan-6-yl)-7,8-dihydro-5H-pyrano[4,3-b]pyridine-3-carbonitrile (7S)-4-(2-chlorophenyl)-7-(4-methyl-1,3-thiazol-5-yl)-2-(2-(2-propenoyl)-2,6-diazaspiro[3.4]octan-6-yl)-7,8-dihydro-5H-pyrano[4,3-b]pyridine-3-carbonitrile]
> 5000 nM	707 nM	98 nM	–	C=CC(=O)N1CC2(CCN(c3nc4c(c(-c5ccc(F)cc5F)c3C#N)COC(c3scnc3C)C4)C2)C1 [Example 23-17, (7R)-4-(2,4-difluorophenyl)-7-(4-methyl-1,3-thiazol-5-yl)-2-(2-(2-propenoyl)-2,6-diazaspiro[3.4]octan-6-yl)-7,8-dihydro-5H-pyrano[4,3-b]pyridine-3-carbonitrile (7S)-4-(2,4-difluorophenyl)-7-(4-methyl-1,3-thiazol-5-yl)-2-(2-(2-propenoyl)-2,6-diazaspiro[3.4]octan-6-yl)-7,8-dihydro-5H-pyrano[4,3-b]pyridine-3-carbonitrile]
2880 nM	–	104 nM	591 nM	C=CC(=O)N1CC2(CCN(c3nc4c(c(-c5ccc(F)cc5Cl)c3C#N)CCC(c3scnc3C)=C4)C2)C1 [Example 23-18, 4-(2-chloro-4-fluorophenyl)-7-(4-methyl-1,3-thiazol-5-yl)-2-(2-(2-propenoyl)-2,6-diazaspiro[3.4]octan-6-yl)-5,6-dihydro-3-quinolinecarbonitrile]
3290 nM	537 nM	87 nM	–	C=CC(=O)N1CC2(CCN(c3nc4c(c(-c5ccccc5Cl)c3C#N)CCC(c3scnc3C)=C4)C2)C1 [Example 23-19, 4-(2-chlorophenyl)-7-(4-methyl-1,3-thiazol-5-yl)-2-(2-(2-propenoyl)-2,6-diazaspiro[3.4]octan-6-yl)-5,6-dihydro-3-quinolinecarbonitrile]
8250 nM	1150 nM	227 nM	–	C=CC(=O)N1CC2(CCN(c3nc4c(c(-c5ccc(F)cc5Cl)c3C#N)COC(c3scnc3C)C4)C2)C1 [Example 23-20, (7R)-4-(2-chloro-4-fluorophenyl)-7-(4-methyl-1,3-thiazol-5-yl)-2-(2-(2-propenoyl)-2,6-diazaspiro[3.4]octan-6-yl)-7,8-dihydro-5H-pyrano[4,3-b]pyridine-3-carbonitrile (7S)-4-(2-chloro-4-fluorophenyl)-7-(4-methyl-1,3-thiazol-5-yl)-2-(2-(2-propenoyl)-2,6-diazaspiro[3.4]octan-6-yl)-7,8-dihydro-5H-pyrano[4,3-b]pyridine-3-carbonitrile]
3780 nM	714 nM	74 nM	–	C=CC(=O)N1CC2(CCN(c3nc4c(c(-c5ccc(F)cc5F)c3C#N)CCC(c3scnc3C)=C4)C2)C1 [Example 23-21, 4-(2,4-difluorophenyl)-7-(4-methyl-1,3-thiazol-5-yl)-2-(2-(2-propenoyl)-2,6-diazaspiro[3.4]octan-6-yl)-5,6-dihydro-3-quinolinecarbonitrile]
> 5000 nM	725 nM	182 nM	–	C=CC(=O)N1CC2(CCN(c3nc4c(c(-c5c(F)cccc5Cl)c3C#N)CCC(c3scnc3C)=C4)C2)C1 [Example 23-22, 4-(2-chloro-6-fluorophenyl)-7-(4-methyl-1,3-thiazol-5-yl)-2-(2-(2-propenoyl)-2,6-diazaspiro[3.4]octan-6-yl)-5,6-dihydro-3-quinolinecarbonitrile]
> 5000 nM	776 nM	97 nM	–	C=CC(=O)N1CC2(CCN(c3nc4c(c(-c5ccc(F)cc5Cl)c3C#N)CO[C@@H](c3scnc3C)C4)C2)C1 [Example 23-27, (7R)-4-(2-chloro-4-fluorophenyl)-7-(4-methyl-1,3-thiazol-5-yl)-2-(2-(2-propenoyl)-2,6-diazaspiro[3.4]octan-6-yl)-7,8-dihydro-5H-pyrano[4,3-b]pyridine-3-carbonitrile]
5680 nM	1400 nM	415 nM	–	C=CC(=O)N1CC2(CCN(c3nc4c(c(-c5ccc(F)cc5Cl)c3C#N)CO[C@H](c3scnc3C)C4)C2)C1 [Example 23-28, (7S)-4-(2-chloro-4-fluorophenyl)-7-(4-methyl-1,3-thiazol-5-yl)-2-(2-(2-propenoyl)-2,6-diazaspiro[3.4]octan-6-yl)-7,8-dihydro-5H-pyrano[4,3-b]pyridine-3-carbonitrile]
